Data: US12357924B2, “Process for producing enriched fraction from Bacopa monnieri extract for management of neurodegenerative disorders” (STAR HI HERBS PVT LTD, priority 2021, dated 2025)

How the values were obtained:
[1] = tested on: behavior of rats in elevated plus maze; assay: Elevated plus maze test; format: in vivo, Wistar strain rats; conditions: 5 minutes test; Bacosane 50 and 100 mg/kg p.o., diazepam 1 mg/kg; vs vehicle
Method: (§1) In further embodiment of the present invention the anxiolytic effect of Bacopa monnieri extract Bacosane is determined by employing 4 different tests i.e., the elevated plus maze (EPM) test, open field test (OFT), […] test and Light dark transition test. The compounds used in these four tests comprises Bacopa monnieri extract Bacosane; and Diazepam (1 mg/kg, i.p.) which is used as standard anxiolytic agent. The four tests are performed on Wistar strain rats of both sex of weighing 130 to 180 g, which were divided into four groups of six rats each (Group I, Group II, Group III and Group IV)
(§2) Group I vehicle (normal saline) at a dose of 10 ml/kg body weight
(§3) Group II received Bacopa monnieri extract Bacosane, at a dose of 50 mg/kg body weight
(§4) Group III received Bacopa monnieri extract Bacosane, at a dose of 100 mg/kg body weight
(§5) Group IV received standard drug, diazepam 1 mg/kg body weight
FIG. 9 depicts comparison of effect of Bacopa monnieri extract Bacosane and diazepam in behavior of rats in elevated plus maze test. […] The percentage of time spent (duration) in open arms and frequency of open arm entries were counted for a period of 5 minutes. […] The percentage of time spent in the open arms and number of open arm entries were calculated using the formulas [100×open/(open+enclosed)] and (100×open/total entries), respectively.

[2] = tested on: locomotor activity of the rats; assay: Actophotometer method (locomotor activity); format: in vivo, Wistar strain rats; conditions: diazepam 1 mg/kg
Method: In further embodiment of the present invention the anxiolytic effect of Bacopa monnieri extract Bacosane is determined by employing 4 different tests i.e., the elevated plus maze (EPM) test, open field test (OFT), Astrophotometer test and Light dark transition test. The compounds used in these four tests comprises Bacopa monnieri extract Bacosane; and Diazepam (1 mg/kg, i.p.) which is used as standard anxiolytic agent. The four tests are performed on Wistar strain rats of both sex of weighing 130 to 180 g, which were divided into four groups of six rats each (Group I, Group II, Group III and Group IV)
In this test, the rats are placed in the digital Actophotometer in which a constant beam of light from six lights will be made to fall on corresponding photoelectric cells. The photoelectric cells get activated when an animal crosses the beam of light and thereby cuts off (crossing) the rays of light falling on it. After 1 hour of Bacopa Monnieri extract Bacosane administration the numbers of crossings are counted for a period of 10 minutes by the actophotometer. […]

[3] = tested on: behavior of rats in open field; assay: Open field test; format: in vivo, Wistar strain rats; conditions: 5 minutes; Diazepam 1 mg/kg, Bacosane 50 mg/kg and 100 mg/kg; vs normal saline
Method: as §1, §2, §3, §4, §5
FIG. 11 depicts comparison of effect of Bacopa monnieri extract Bacosane and Diazepam on behavior of rats in open field test. The apparatus comprises a wooden box (60×60×60 cm). The area of the open field was divided into 16 squares (15×15 cm), the four inner squares in the center and 12 squares in the periphery along the walls. The other identical condition comprises of sound attenuated and dark experimental room. […]

MES induced convulsion = assay: Maximal electroshock induced seizures (MES) model; format: in vivo, albino Wister rats
Method: (§6) In further embodiment of the present invention the anticonvulsant activity of Bacopa monnieri extract Bacosane is determined using Pentylenetetrazole (PTZ) and the maximal electroshock seizure (MES) models. The analysis is performed on healthy Swiss mice of either sex, weighing about 25-30 g and Wistar rats of either sex, weighing about 150-200 g. The animals were grouped and housed in polyacrylic cages (38×23×10 cm) with not more than six animals per cage and maintained under standard laboratory conditions (temperature 25° C.) with dark and light cycle (12/12 h). All the animals were acclimatized to laboratory condition for a week before commencement of the analysis. The animals were randomly allocated into four groups of six each: Group I (control group), Group II, Group III, Group IV.
Group-I received 10 ml/kg of 1% NaCMC p.o. which served as control.
Group-II received phenytoin sodium (25 mg/kg, orally) as standard controls in MES method and PTZ induced seizures method respectively.
Group-III and IV were administered two graded doses of Bacopa monnieri extract Bacosane i.e., 50 mg/kg and 100 mg/kg, respectively, p.o.
In the above analysis the percentage protection of animals was recorded as percentage of reduction in duration of seizures wherein the control group is assumed as 100%. The observations of group II, III and IV were compared with control Group-I. It is observed that Bacopa monnieri extract Bacosane has potential anticonvulsant activity due to the presence of certain active phytoconstituents. The anticonvulsant activity of Bacopa monnieri extract Bacosane involves GABAergic transmission and glutaminergic transmission or sodium channel blockage. However, it can be considered that the Bacopa monnieri extract Bacosane as a potent anticonvulsant supplement. The analysis and observations of Pentylenetetrazole (PTZ) and the maximal electroshock seizure (MES) models is shown in FIG. 3 to FIG. 6.
FIG. 3 is the graphical representation of effect of Bacopa Monnieri extract Bacosane on tonic extension phase in MES induced convulsion. […]

[4] = tested on: PTZ induced tonic-clonic convulsions; assay: Pentylenetetrazole (PTZ) induced convulsions model; format: in vivo, rats; conditions: phenytoin sodium 25 mg/kg orally
Method: as §6
Group-I received 10 ml/kg of 1% NaCMC p.o. which served as control. […]
In the above analysis the percentage protection of animals was recorded as percentage of reduction in duration of seizures wherein the control group is assumed as 100%. […]
FIG. 5 depicts graphical representation of effect of Bacopa Monnieri extract Bacosane on tonic-clonic convolution in Pentylenetetrazole (PTZ) induced model in rats. […] The onset of convulsions, number of animals that convulsed and number of animals that were protected from clonic convulsions were recorded.

hippocampus = conditions: sub-chronic and chronic administration, 30 mg/kg; cited from earlier work
[5] = DPPH free radical scavenging assay; format: biochemical; conditions: 0.1 mM DPPH in methanol, 30 minutes, absorbance at 517 nm
Method: The free radical scavenging activity of Bacopa monnieri extract Bacosane and BHT is determined through the process comprising steps of: preparing solution of 0.1 mM DPPH in methanol, and 1.5 mL of this solution was mixed with 1.5 mL of extract in methanol at different concentrations (50, 100, 150, 200 and 250 m/mL); and measuring the absorbance at 517 nm, after leaving the above mixture for 30 minutes of incubation at dark room. Butylated hydroxytoluene (BHT) was used as the reference standard at different concentrations (20, 40, 60, 80 and 100 m/m1). The radical scavenging activity of DPPH was calculated using the following equation: [A0-A1)/A0]×100 where A0 is the absorbance of the control, and A1 is the absorbance of the standard. Then the percentage (%) of inhibition was plotted against concentration of the Bacopa monnieri extract Bacosane and BHT, and from the graph as shown in FIGS. 7A-7B half-maximal inhibitory concentration (IC50) was calculated to determine the efficacy of Bacopa monnieri extract Bacosane in comparison to standard butylated hydroxytoluene (BHT).

CN1C(=O)CN=C(c2ccccc2)c2cc(Cl)ccc21 [Diazepam]
closed arm number of entries and time spent [1]: significantly decreased
percentage of number of open arm entries and time spent in open arm [1]: significant increase
number of crossings of light beams compared to control group [2]: significantly reduced
anxiolysis (increased ambulation, rearing and preening, decreased defecations) [3]: significantly exhibited anxiolysis

O=C1NC(=O)C(c2ccccc2)(c2ccccc2)N1 [Phenytoin, phenytoin sodium]
hind limb tonic extension (MES induced convulsion; MES model, compared to control group): decreased
extensor phase (MES induced convulsion; MES model, phenytoin sodium 25 mg/kg orally): abolished the extensor phase completely
protection in animals against MES (MES induced convulsion; phenytoin sodium 25 mg/kg orally): 100%
anticonvulsant effect (latency, onset of clonic convulsions, onset of tonic seizures) ([4]; PTZ 90 mg/kg i.p., Bacosane 50 and 100 mg/kg orally): significantly anticonvulsant activity
protection ([4]; PTZ model): 100%

C[C@H]1[C@H](C)CC[C@]2(C(=O)O)CC[C@]3(C)C(=CC[C@@H]4[C@@]5(C)C[C@@H](O)[C@H](O)[C@@](C)(CO)[C@@H]5CC[C@]43C)[C@H]12 [asiatic acid]
cell proliferation in the hippocampus (hippocampus): increase
spatial working memory (hippocampus): stimulate

Cc1cc(C(C)(C)C)c(O)c(C(C)(C)C)c1 [butylated hydroxytoluene (BHT), butylated hydroxytoluene]
half-maximal inhibitory concentration (IC50), DPPH free radical scavenging [5]: 150.50 µg/mL
